Laboratory results: ChEMBL document CHEMBL1201862, “PubChem BioAssay data set” (2004)
“And” between values parts separate entries of the source, which are not always exact repeats. Equal values may be shown once.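 Grown in 96-well plates, cells were treated for 48 hours with each compound at five concentrations. Insufficient inhibition: endpoint recorded as highest concentration tested. The concentration for 50% growth inhibition is given as GI50.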 The source made the active and inactive calls. Cut-off read from the data, not from the text of the source: active = GI50 up to about 1.1 µM and inactive = higher. Where a SMILES comes first, the peptide text is derived from it. Square brackets hold non-standard residues; d marks the D form. Peptide text beside a SMILES is read from it. The star is where a group is joined. * marks the point of attachment. Tyr(3-Br) = N[C@@H](Cc1ccc(O)c(Br)c1)C(=O)O; Boc = CC(C)(C)OC(=O)*

Columns and labels:
Assay in all cases: DTP human tumour cell line panel, 48 h
[1] = test system: SF-539
[2] = test system: MOLT-4
[3] = test system: Malme-3M
[4] = test system: TK-10
[5] = test system: SR
[6] = test system: SNB-75
[7] = test system: HOP-62
[8] = test system: COLO 205
[9] = test system: HCT-116
[10] = test system: M14
[11] = test system: NCI-H23
[12] = test system: NCI-H522
[13] = test system: Hs-578T
[14] = test system: SW-620
[15] = test system: A549
[16] = test system: MDA-MB-231
[17] = test system: SK-OV-3
[18] = test system: HCC 2998
[19] = test system: A498
[20] = test system: UACC-62

| Structure (SMILES) | GI50 [1] | GI50 [2] | GI50 [3] | GI50 [4] | GI50 [5] | GI50 [6] | GI50 [7] | GI50 [8] | GI50 [9] | GI50 [10] | GI50 [11] | GI50 [12] | GI50 [13] | GI50 [14] | GI50 [15] | GI50 [16] | GI50 [17] | GI50 [18] | GI50 [19] | GI50 [20] |
| --- | --- | --- | --- | --- | --- | --- | --- | --- | --- | --- | --- | --- | --- | --- | --- | --- | --- | --- | --- | --- |
| O=C(C[C@@H]1CCCN2CCCC[C@H]12)N1c2ccccc2Sc2ccc(Cl)cc21 | 16.6 µM (inactive) | 11.8 µM (inactive) | 16.2 µM (inactive) | 20 µM (inactive) | 19.3 µM (inactive) | 13.8 µM (inactive) | 13 µM (inactive) | 11.9 µM (inactive) | 16 µM (inactive) | 4.95 µM (inactive) | 14.7 µM (inactive) | 13.5 µM (inactive) | 17.1 µM (inactive) | 13.9 µM (inactive) | 16.6 µM (inactive) | 14.7 µM (inactive) |  |  |  |  |
| COc1ccc2nc3cccc([N+](=O)[O-])c3c(NCCN(C)C)c2c1 | 0.147 µM (active) | 0.103 µM (active) | 0.0877 µM (active) | 0.263 µM (active) |  | 0.159 µM (active) | 0.119 µM (active) | 0.0284 µM (active) | 0.0251 µM (active) | 0.0927 µM (active) | 0.136 µM (active) | 0.0209 µM (active) | 0.242 µM (active) | 0.14 µM (active) | 0.0515 µM (active) | 0.156 µM (active) | 0.255 µM (active) | 0.0605 µM (active) | 0.17 µM (active) |  |
| Cn1/c(=N\S(=O)(=O)c2ccccc2)n(S(=O)(=O)c2ccccc2)c2ccccc21 |  | 42.9 µM (inactive) | 47.6 µM (inactive) | > 100 µM (inactive) |  | 54.7 µM (inactive) | 38.8 µM (inactive) | 32.9 µM (inactive) | 48.9 µM (inactive) | 53.7 µM (inactive) | 61 µM (inactive) | 50.4 µM (inactive) | 41.8 µM (inactive) | 93.1 µM (inactive) | 47.5 µM (inactive) | > 100 µM (inactive) | > 100 µM (inactive) |  | 78.7 µM (inactive) | > 100 µM (inactive) |
| CCc1cc2c(cc1C(=O)CCC(=O)O)CC1(C2)Cc2cc(CC)c(C(=O)CCC(=O)O)cc2C1 | > 100 µM (inactive) | > 100 µM (inactive) | 38.5 µM (inactive) | > 100 µM (inactive) |  | 50.5 µM (inactive) | > 100 µM (inactive) | > 100 µM (inactive) | > 100 µM (inactive) | > 100 µM (inactive) | > 100 µM (inactive) | > 100 µM (inactive) | > 100 µM (inactive) | > 100 µM (inactive) | > 100 µM (inactive) | > 100 µM (inactive) | > 100 µM (inactive) | > 100 µM (inactive) | > 100 µM (inactive) |  |
| Cc1cc2c(cc1Cl)Sc1nnc(C)n1S2(=O)=O | 17.9 µM (inactive) | 14.4 µM (inactive) | 8.67 µM (inactive) | 15.6 µM (inactive) |  | 13.3 µM (inactive) | 20 µM (inactive) | 15.2 µM (inactive) | 16.1 µM (inactive) | 14 µM (inactive) | 12.9 µM (inactive) | 8.69 µM (inactive) | 28.9 µM (inactive) | 15.4 µM (inactive) | 25.1 µM (inactive) | 11.7 µM (inactive) | 26.6 µM (inactive) | 17.7 µM (inactive) | 14.8 µM (inactive) | 15 µM (inactive) |
| CC(=O)CCn1c(=S)sc2ccccc21 | > 100 µM (inactive) | > 100 µM (inactive) |  | > 100 µM (inactive) |  | > 100 µM (inactive) | > 100 µM (inactive) | > 100 µM (inactive) | > 100 µM (inactive) | > 100 µM (inactive) | > 100 µM (inactive) | 19.4 µM (inactive) | > 100 µM (inactive) | > 100 µM (inactive) | > 100 µM (inactive) | > 100 µM (inactive) | 86.9 µM (inactive) | > 100 µM (inactive) |  | > 100 µM (inactive) |
| C#CC(O)/C=C/C(O)CCCC(O)CC#CC(O)C#CCCCCC(O)/C=C/CCCC(=O)CCCCCCCCCCCCCCCC(O)C(O)C#CC(=O)O (stereo unspecified) |  | > 25 µM (inactive) | > 25 µM (inactive) | > 25 µM (inactive) | > 25 µM (inactive) | > 25 µM (inactive) | > 25 µM (inactive) | > 25 µM (inactive) | > 25 µM (inactive) | > 25 µM (inactive) | > 25 µM (inactive) | 6.28 µM (inactive) | > 25 µM (inactive) |  | > 25 µM (inactive) | > 25 µM (inactive) | > 25 µM (inactive) | > 25 µM (inactive) |  | > 25 µM (inactive) |
| CC1CCC2(C(=O)O)CCC3(C)C(=CCC4C5(C)CCC(O)C(C)(C)C5CCC43C)C2C1C (stereo unspecified) | 13.4 µM (inactive) and 11 µM (inactive) |  | 15.1 µM (inactive) and 14 µM (inactive) | 19.7 µM (inactive) | 19.5 µM (inactive) |  | 16.5 µM (inactive) and 9.33 µM (inactive) | 13.7 µM (inactive) and 14.7 µM (inactive) | 14.4 µM (inactive) and 7.28 µM (inactive) | 2.16 µM (inactive) | 18.5 µM (inactive) and 11.9 µM (inactive) |  | 8.71 µM (inactive) |  |  | 12.5 µM (inactive) | 18.2 µM (inactive) and 15.5 µM (inactive) | 11.1 µM (inactive) and 10.6 µM (inactive) |  | 19.6 µM (inactive) and 10.8 µM (inactive) |
| CCOC(=O)NC(=S)c1ccc(O)c2ccccc12 | 53.8 µM (inactive) | 36.1 µM (inactive) | 33.1 µM (inactive) |  | 25.5 µM (inactive) |  | 77.1 µM (inactive) | > 100 µM (inactive) | 84.7 µM (inactive) | 70.1 µM (inactive) | 55.5 µM (inactive) | 16.9 µM (inactive) | 21.7 µM (inactive) | 51.6 µM (inactive) | 44.9 µM (inactive) |  | 45.1 µM (inactive) | 91 µM (inactive) | > 100 µM (inactive) | 68.1 µM (inactive) |
| Nc1nc2c(c(-c3cccc(Cl)c3)n1)COC/C2=C\c1cccc(Cl)c1 | > 100 µM (inactive) | > 100 µM (inactive) | 37.9 µM (inactive) | 41.8 µM (inactive) |  | 22.9 µM (inactive) | > 100 µM (inactive) | > 100 µM (inactive) | > 100 µM (inactive) | > 100 µM (inactive) | > 100 µM (inactive) | > 100 µM (inactive) | 45.6 µM (inactive) | > 100 µM (inactive) |  | 52.7 µM (inactive) | > 100 µM (inactive) | 56.8 µM (inactive) | > 100 µM (inactive) | > 100 µM (inactive) |
| COC(=O)[C@H](Cc1ccc(O)c(Br)c1)NC(=O)[C@H](Cc1ccc(O)cc1)NC(=O)OC(C)(C)C (Boc-Tyr-[Tyr(3-Br)]-OMe) | 28.7 µM (inactive) | 48.2 µM (inactive) | 24.5 µM (inactive) | > 100 µM (inactive) | 44.6 µM (inactive) | 92 µM (inactive) | > 100 µM (inactive) | 39.9 µM (inactive) | 45.6 µM (inactive) | 33.1 µM (inactive) | 27.4 µM (inactive) |  | > 100 µM (inactive) | 42.6 µM (inactive) | > 100 µM (inactive) |  | > 100 µM (inactive) | 31.6 µM (inactive) | > 100 µM (inactive) |  |
| CSc1ccc(C2C(Cl)C(=O)N2NC(=O)c2c(Cl)c(Cl)c(Cl)c(Cl)c2-c2nc3ccccc3[nH]2)cc1 (stereo unspecified) | 20.8 µM (inactive) | 4.7 µM (inactive) | 19 µM (inactive) |  | 2.9 µM (inactive) | 15.2 µM (inactive) | 79.3 µM (inactive) | 20.3 µM (inactive) | 15.8 µM (inactive) | 20.5 µM (inactive) | 15.6 µM (inactive) | 1.83 µM (inactive) | 32.5 µM (inactive) | 25.8 µM (inactive) | 31.4 µM (inactive) |  | 26.6 µM (inactive) | 20.2 µM (inactive) | 31.8 µM (inactive) | 29.8 µM (inactive) |
| c1ccc2c(c1)ccc1nc(-c3ccc4c(c3)OCO4)c3c(c12)CCC3 | > 100 µM (inactive) | 42.8 µM (inactive) | > 100 µM (inactive) |  |  | > 100 µM (inactive) | > 100 µM (inactive) | 56.9 µM (inactive) | 88.9 µM (inactive) | > 100 µM (inactive) | 60.3 µM (inactive) |  | 55.8 µM (inactive) | > 100 µM (inactive) | 95.9 µM (inactive) | 67.5 µM (inactive) | > 100 µM (inactive) | 79.4 µM (inactive) | > 100 µM (inactive) | > 100 µM (inactive) |
| CC1(C)CC(=O)C(=CNC(N)=S)C(=O)C1 | > 100 µM (inactive) | > 100 µM (inactive) |  | > 100 µM (inactive) |  | > 100 µM (inactive) | > 100 µM (inactive) | > 100 µM (inactive) | > 100 µM (inactive) | > 100 µM (inactive) | > 100 µM (inactive) | > 100 µM (inactive) | > 100 µM (inactive) | > 100 µM (inactive) | > 100 µM (inactive) | > 100 µM (inactive) | > 100 µM (inactive) | > 100 µM (inactive) |  | > 100 µM (inactive) |
| COC(=O)C(Cc1c[nH]c2ccccc12)NC(=O)C(Cc1c[nH]c2ccccc12)NC(=O)C(Cc1c[nH]c2ccccc12)NC(=O)OC(C)(C)C (stereo not drawn) (Boc-Trp-Trp-Trp-OMe; configuration not given here) |  | 17.3 µM (inactive) | > 100 µM (inactive) | 25.5 µM (inactive) |  | 19.8 µM (inactive) | 17.9 µM (inactive) | 20.4 µM (inactive) | 16.2 µM (inactive) | 37.3 µM (inactive) | 16.2 µM (inactive) |  | 17.7 µM (inactive) | 21.5 µM (inactive) | 39.2 µM (inactive) | 30.1 µM (inactive) |  | 18.6 µM (inactive) | 53.5 µM (inactive) | 18.8 µM (inactive) |
